Data: ChEMBL document CHEMBL1124314, “Development of phosphonate derivatives of gadolinium chelates for NMR imaging of calcified soft tissues” (J Med Chem, 1989)

How the values were obtained:
Rattus norvegicus [1] = species: Rattus norvegicus; experiment: Biodistribution in rat liver in the presence of GdDTPA-HPDP at 30 min; type: ADME, organism-based; details: in vivo, 0.5 h
Rattus norvegicus [2] = species: Rattus norvegicus; experiment: Biodistribution in rat kidney in the presence of NAC Gd/0.01 M GdDTPA-HPDP; type: ADME, organism-based; details: in vivo
Rattus norvegicus [3] = species: Rattus norvegicus; experiment: Biodistribution in rat heart in the presence of 0.001 M/0.008 M GdDTPA-AEP; details: in vivo
Rattus norvegicus [4] = species: Rattus norvegicus; experiment: Biodistribution in rat blood in the presence of GdDTPA at 30 min; type: ADME, organism-based; details: in vivo, 0.5 h
Rattus norvegicus [5] = species: Rattus norvegicus; experiment: Biodistribution in rat liver in the presence of 0.01 M/0.01 M GdDTPA-AEP; type: ADME, organism-based; details: in vivo
Rattus norvegicus [6] = species: Rattus norvegicus; experiment: Biodistribution in rat blood in the presence of 0.10 M GdDTPA-BDP; type: ADME, organism-based; details: in vivo
Rattus norvegicus [7] = species: Rattus norvegicus; experiment: Biodistribution in rat liver in the presence of 0.001 M/0.008 M GdDTPA-AEP; type: ADME, organism-based; details: in vivo
Rattus norvegicus [8] = species: Rattus norvegicus; experiment: Biodistribution in rat bone in the presence of GdDTPA-BDP at 1 hr; type: ADME, organism-based, Bone element; details: in vivo
Rattus norvegicus [9] = species: Rattus norvegicus; experiment: Biodistribution in rat heart in the presence of GdDTPA-BDP at 4 hr; details: in vivo
Rattus norvegicus [10] = species: Rattus norvegicus; experiment: Biodistribution in rat muscle in the presence of GdDTPA-BDPat 30 min; type: ADME, organism-based, Muscle tissue; details: in vivo, 0.5 h
Rattus norvegicus [11] = species: Rattus norvegicus; experiment: Biodistribution in rat bone in the presence of GdDTPA at 1 hr; type: ADME, organism-based, Bone element; details: in vivo
Rattus norvegicus [12] = species: Rattus norvegicus; experiment: Biodistribution in rat blood in the presence of GdDTPA-HPDP at 30 min; type: ADME, organism-based; details: in vivo, 0.5 h
Rattus norvegicus [13] = species: Rattus norvegicus; experiment: Biodistribution in rat liver in the presence of GdDTPA at 30 min; type: ADME, organism-based; details: in vivo, 0.5 h
Rattus norvegicus [14] = species: Rattus norvegicus; experiment: Biodistribution in rat heart in the presence of GdDTPA-HPDP at 30 min; type: ADME, organism-based; details: in vivo, 0.5 h
Rattus norvegicus [15] = species: Rattus norvegicus; experiment: Biodistribution in rat blood in the presence of 0.001 M/0.008 M GdDTPA-AEP; type: ADME, organism-based; details: in vivo
Rattus norvegicus [16] = species: Rattus norvegicus; experiment: Biodistribution in rat blood in the presence of GdDTPA at 4 hr; type: ADME, organism-based; details: in vivo
Rattus norvegicus [17] = species: Rattus norvegicus; experiment: Biodistribution in rat blood in the presence of 0.05 M/0.05 M GdDTPA-AEP; type: ADME, organism-based; details: in vivo
Rattus norvegicus [18] = species: Rattus norvegicus; experiment: Biodistribution in rat bone in the presence of 0.001 M/0.008 M GdDTPA-AEP; details: in vivo
Rattus norvegicus [19] = species: Rattus norvegicus; experiment: Biodistribution in rat kidney in the presence of 0.01 M/0.01 M GdDTPA-AEP; type: ADME, organism-based; details: in vivo
Rattus norvegicus [20] = species: Rattus norvegicus; experiment: Biodistribution in rat heart in the presence of GdDTPA-BDP at 30 min; type: ADME, organism-based; details: in vivo, 0.5 h
Rattus norvegicus [21] = species: Rattus norvegicus; experiment: Biodistribution in rat heart in the presence of GdDTPA at 20 min; details: in vivo, 0.33 h
Rattus norvegicus [22] = species: Rattus norvegicus; experiment: Biodistribution in rat heart in the presence of GdDTPA at 4 hr; type: ADME, organism-based; details: in vivo
Rattus norvegicus [23] = species: Rattus norvegicus; experiment: Biodistribution in rat blood in the presence of 0.01 M/0.01 M GdDTPA-AEP; type: ADME, organism-based; details: in vivo
Rattus norvegicus [24] = species: Rattus norvegicus; experiment: Biodistribution in rat blood in the presence of GdDTPA-BDPat 1 hr; type: ADME, organism-based; details: in vivo
Rattus norvegicus [25] = species: Rattus norvegicus; experiment: Biodistribution in rat muscle in the presence of GdDTPA-BDP at 4 hr; type: ADME, organism-based, Muscle tissue; details: in vivo
Rattus norvegicus [26] = species: Rattus norvegicus; experiment: Biodistribution in rat kidney in the presence of 0.001 M/0.008 M GdDTPA-AEP; details: in vivo
Rattus norvegicus [27] = species: Rattus norvegicus; experiment: Biodistribution in rat liver in the presence of GdDTPA-BDP at 20 min; details: in vivo, 0.33 h
Rattus norvegicus [28] = species: Rattus norvegicus; experiment: Biodistribution in rat bone in the presence of 0.05 M GdDTPA-BDP; type: ADME, organism-based, Bone element; details: in vivo
Rattus norvegicus [29] = species: Rattus norvegicus; experiment: Biodistribution in rat bone in the presence of NAC Gd/0.01 M GdDTPA-HPDP; type: ADME, organism-based, Bone element; details: in vivo
Rattus norvegicus [30] = species: Rattus norvegicus; experiment: Biodistribution in rat bone in the presence of GdDTPA-HPDP at 30 min; type: ADME, organism-based, Bone element; details: in vivo, 0.5 h
Rattus norvegicus [31] = species: Rattus norvegicus; experiment: Biodistribution in rat bone in the presence of GdDTPA-HPDP at 1 hr; type: ADME, organism-based, Bone element; details: in vivo
Rattus norvegicus [32] = species: Rattus norvegicus; experiment: Biodistribution in rat liver in the presence of GdDTPA at 15 min; type: ADME, organism-based; details: in vivo, 0.25 h
Rattus norvegicus [33] = species: Rattus norvegicus; experiment: Biodistribution in rat heart in the presence of NAC Gd/0.01 M GdDTPA-HPDP; type: ADME, organism-based; details: in vivo
Rattus norvegicus [34] = species: Rattus norvegicus; experiment: Biodistribution in rat muscle in the presence of GdDTPA-HPDPat 15 min; type: ADME, organism-based, Muscle tissue; details: in vivo, 0.25 h
Rattus norvegicus [35] = species: Rattus norvegicus; experiment: Biodistribution in rat liver in the presence of GdDTPA-HPDP at 15 min; type: ADME, organism-based; details: in vivo, 0.25 h
Rattus norvegicus [36] = species: Rattus norvegicus; experiment: Biodistribution in rat bone in the presence of 0.05 M/0.08 M GdDTPA-HPDP; type: ADME, organism-based, Bone element; details: in vivo
Rattus norvegicus [37] = species: Rattus norvegicus; experiment: Biodistribution in rat heart in the presence of 0.01 M GdDTPA-BDP; type: ADME, organism-based; details: in vivo
Rattus norvegicus [38] = species: Rattus norvegicus; experiment: Biodistribution in rat bone in the presence of GdDTPA-BDP at 20 min; details: in vivo, 0.33 h
Rattus norvegicus [39] = species: Rattus norvegicus; experiment: Biodistribution in rat heart in the presence of GdDTPA at 1 hr; type: ADME, organism-based; details: in vivo
Rattus norvegicus [40] = species: Rattus norvegicus; experiment: Biodistribution in rat spleen in the presence of 0.10 M GdDTPA-BDP; type: ADME, organism-based; details: in vivo
Rattus norvegicus [41] = species: Rattus norvegicus; experiment: Biodistribution in rat liver in the presence of 0.05 M/0.05 M GdDTPA-AEP; type: ADME, organism-based; details: in vivo
Rattus norvegicus [42] = species: Rattus norvegicus; experiment: Biodistribution in rat heart in the presence of 0.05 M/0.08 M GdDTPA-HPDP; type: ADME, organism-based; details: in vivo
Rattus norvegicus [43] = species: Rattus norvegicus; experiment: Biodistribution in rat kidney in the presence of 0.01 M GdDTPA-BDP; type: ADME, organism-based; details: in vivo
Rattus norvegicus [44] = species: Rattus norvegicus; experiment: Biodistribution in rat heart in the presence of GdDTPA-BDP at 1 hr; details: in vivo
Rattus norvegicus [45] = species: Rattus norvegicus; experiment: Biodistribution in rat blood in the presence of GdDTPA at 20 min; details: in vivo, 0.33 h
Rattus norvegicus [46] = species: Rattus norvegicus; experiment: Biodistribution in rat liver in the presence of 0.10 M GdDTPA-BDP; type: ADME, organism-based; details: in vivo
Rattus norvegicus [47] = species: Rattus norvegicus; experiment: Biodistribution in rat liver in the presence of GdDTPA-HPDP at 1 hr; type: ADME, organism-based; details: in vivo
Rattus norvegicus [48] = species: Rattus norvegicus; experiment: Biodistribution in rat heart in the presence of GdDTPA-HPDP at 4 hr; type: ADME, organism-based; details: in vivo
Rattus norvegicus [49] = species: Rattus norvegicus; experiment: Biodistribution in rat spleen in the presence of 0.01 M GdDTPA-BDP; type: ADME, organism-based; details: in vivo
Rattus norvegicus [50] = species: Rattus norvegicus; experiment: Biodistribution in rat muscle in the presence of GdDTPA-BDP at 1 hr; type: ADME, organism-based, Muscle tissue; details: in vivo
Rattus norvegicus [51] = species: Rattus norvegicus; experiment: Biodistribution in rat blood in the presence of GdDTPA-HPDPat 1 hr; type: ADME, organism-based; details: in vivo
Rattus norvegicus [52] = species: Rattus norvegicus; experiment: Biodistribution in rat heart in the presence of GdDTPA-HPDPat 15 min; type: ADME, organism-based; details: in vivo, 0.25 h
Rattus norvegicus [53] = species: Rattus norvegicus; experiment: Biodistribution in rat heart in the presence of 0.05 M /0.05 M GdDTPA-AEP; type: ADME, organism-based; details: in vivo
Rattus norvegicus [54] = species: Rattus norvegicus; experiment: Biodistribution in rat bone in the presence of GdDTPA at 4 hr; type: ADME, organism-based, Bone element; details: in vivo
Rattus norvegicus [55] = species: Rattus norvegicus; experiment: Biodistribution in rat bone in the presence of 0.10 M GdDTPA-BDP; type: ADME, organism-based, Bone element; details: in vivo

O=C(O)CN(CCN(CC(=O)O)CC(=O)O)CCN(CC(=O)O)CC(=O)O [PENTETIC ACID]
ID/organ (Rattus norvegicus [1]): 0.519% | ID/organ (Rattus norvegicus [2]): 0.273% | ID/organ (Rattus norvegicus [3]): 0.004% | ID/organ (Rattus norvegicus [4]): 1.02% | ID/organ (Rattus norvegicus [5]): 18.3% | ID/organ (Rattus norvegicus [6]): 1.62% | ID/organ (Rattus norvegicus [7]): 0.239% | ID/organ (Rattus norvegicus [8]): 17.6% | ID/organ (Rattus norvegicus [9]): 0.037% | ID/organ (Rattus norvegicus [10]): 5.17% | ID/organ (Rattus norvegicus [11]): 0.779% | ID/organ (Rattus norvegicus [12]): 2.46% | ID/organ (Rattus norvegicus [13]): 0.418% | ID/organ (Rattus norvegicus [14]): 0.04% | ID/organ (Rattus norvegicus [15]): 0.143% | ID/organ (Rattus norvegicus [16]): 0.005% | ID/organ (Rattus norvegicus [17]): 0.556% | ID/organ (Rattus norvegicus [18]): 0.264% | ID/organ (Rattus norvegicus [19]): 0.222% | ID/organ (Rattus norvegicus [20]): 17.6% | ID/organ (Rattus norvegicus [21]): 0.097% | ID/organ (Rattus norvegicus [22]): 0.002% | ID/organ (Rattus norvegicus [23]): 0.503% | ID/organ (Rattus norvegicus [24]): 2.53% | ID/organ (Rattus norvegicus [25]): 4.5% | ID/organ (Rattus norvegicus [26]): 0.268% | ID/organ (Rattus norvegicus [27]): 1.02% | ID/organ (Rattus norvegicus [28]): 16.3% | ID/organ (Rattus norvegicus [29]): 65.7% | ID/organ (Rattus norvegicus [30]): 16.8% | ID/organ (Rattus norvegicus [31]): 20% | ID/organ (Rattus norvegicus [32]): 1.59% | ID/organ (Rattus norvegicus [33]): 0.032% | ID/organ (Rattus norvegicus [34]): 6.36% | ID/organ (Rattus norvegicus [35]): 0.745% | ID/organ (Rattus norvegicus [36]): 17.6% | ID/organ (Rattus norvegicus [37]): 0.129% | ID/organ (Rattus norvegicus [38]): 11% | ID/organ (Rattus norvegicus [39]): 0.019% | ID/organ (Rattus norvegicus [40]): 0.013% | ID/organ (Rattus norvegicus [41]): 14.8% | ID/organ (Rattus norvegicus [42]): 0.007% | ID/organ (Rattus norvegicus [43]): 0.476% | ID/organ (Rattus norvegicus [44]): 0.055% | ID/organ (Rattus norvegicus [45]): 6.03% | ID/organ (Rattus norvegicus [46]): 0.795% | ID/organ (Rattus norvegicus [47]): 0.201% | ID/organ (Rattus norvegicus [48]): 0.003% | ID/organ (Rattus norvegicus [49]): 0.185% | ID/organ (Rattus norvegicus [50]): 4.47% | ID/organ (Rattus norvegicus [51]): 0.543% | ID/organ (Rattus norvegicus [52]): 0.081% | ID/organ (Rattus norvegicus [53]): 0.016% | ID/organ (Rattus norvegicus [54]): 0.287% | ID/organ (Rattus norvegicus [55]): 13.3%
